Results from US9403830B2, “Inhibitors of leukotriene production” (Boehringer Ingelheim International GmbH, priority 2012, dated 2016).

Assays:
[1] = molecular target: T1, human LTA4 hydrolase (Homo sapiens, UniProt P09960); test: LTA4H Enzyme assay (peptidase, Arg-AMC cleavage); assay type: biochemical; conditions: LTA4H enzyme 1 nM, Arg-AMC substrate 50 μM, room temperature 1 h, fluorescence 380/460 nm
T1 sequence (P09960 1-611): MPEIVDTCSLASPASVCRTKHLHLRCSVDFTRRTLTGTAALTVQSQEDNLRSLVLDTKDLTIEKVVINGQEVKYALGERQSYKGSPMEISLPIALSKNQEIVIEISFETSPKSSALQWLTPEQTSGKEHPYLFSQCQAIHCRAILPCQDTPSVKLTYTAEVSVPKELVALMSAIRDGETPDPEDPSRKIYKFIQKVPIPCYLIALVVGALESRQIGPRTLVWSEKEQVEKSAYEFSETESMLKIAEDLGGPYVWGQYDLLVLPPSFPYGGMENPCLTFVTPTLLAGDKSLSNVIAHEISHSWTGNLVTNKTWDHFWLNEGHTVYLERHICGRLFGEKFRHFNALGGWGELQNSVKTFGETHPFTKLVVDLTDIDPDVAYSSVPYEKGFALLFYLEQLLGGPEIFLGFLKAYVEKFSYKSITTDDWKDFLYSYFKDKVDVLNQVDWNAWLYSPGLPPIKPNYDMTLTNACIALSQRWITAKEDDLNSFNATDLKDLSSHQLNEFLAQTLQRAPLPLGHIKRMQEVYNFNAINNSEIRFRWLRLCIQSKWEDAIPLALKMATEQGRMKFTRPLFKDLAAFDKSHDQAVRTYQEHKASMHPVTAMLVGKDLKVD
Procedure: The compounds of the invention are assessed for the ability to interact with human LTA4 hydrolase in an enzymatic assay that measures the ability of the enzyme to cleave the peptide bond of arginyl-aminomethylcoumarin (Arg-AMC). LTA4H Enzyme (1 nM final), Arg-AMC substrate (50 μM final), and compound are combined in a reaction buffer (50 mM Tris-HCl (pH 7.5), 100 mM KCl, 0.5% bovine serum albumin) at room temperature for 1 h. The formation of product is assessed by measuring the fluorescence of aminomethylcoumarin product (excitation wavelength 380 nm/emission wavelength 460 nm). In general, the preferred potency range (IC50) of compounds in the LTA4H Enzyme assay is between 0.1 nM to 10 μM, the more preferred potency range is 0.1 nM to 0.1 μM, and the most preferred potency range is 0.1 nM to 10 nM.

[2] = tested on: LTB4 synthesis in human whole blood; test: human whole blood (HWB) assay, inhibition of LTB4 production; assay type: cell-based; conditions: heparinized human whole blood, calcimycin 20 μM stimulation, plasma LTB4
Procedure: The compounds of the invention are additionally tested in a human whole blood (HWB) assay to determine their ability to inhibit the synthesis of LTB4 in a cellular system. Compounds are combined with heparinized human whole blood and incubated for 15 minutes at 37° C. Calcimycin (20 μM final, prepared in phosphate-buffered saline, pH 7.4) is then added and the mixture is incubated for another 30 minutes at 37° C. The samples are centrifuged for 5 min at low speed (1500×g) and the plasma layer is removed. Plasma LTB4 concentrations are then measured using an antibody-based homogenous time-resolved fluorescence method (CisBio, Bedford, Mass.). In general, the preferred potency range (IC50) of compounds in the HWB assay is between 10 nM to 10 μM, the more preferred potency range is 10 nM to 1 μM, and the most preferred potency range is 10 nM to 100 nM.

Compound `CC(=O)N1CCN(c2ccc3cc(Oc4ccc(-c5ccn[nH]5)cn4)ccc3n2)CC1` [Example 115, 1-(4-{6-[5-(2H-Pyrazol-3-yl)-pyridin-2-yloxy]-quinolin-2-yl}-piperazin-1-yl)-ethanone] has an IC50 [1] of 1.7 nM and an IC50 [2] of 550 nM.

`O=S1(=O)CCN(CCn2cc3cc(Oc4ccc(-c5ccn[nH]5)cc4)ccc3n2)CC1` [Example 176, 2-[2-(1,1-Dioxo-1-λ-6-thiomorpholin-4-yl)-ethyl]-5-[4-(2H-pyrazol-3-yl)-phenoxy]-2H-indazole] showed an IC50 [1] of 0.32 nM and an IC50 [2] of 140 nM.

With `c1cc(-c2ccc(Oc3ccc4nc(OCCN5CCOCC5)sc4c3)cc2)n[nH]1` [Example 232, 2-(2-Morpholin-4-yl-ethoxy)-6-[4-(1H-pyrazol-3-yl)-phenoxy]-benzothiazole] the IC50 [1] was 1.4 nM and the IC50 [2] was 160 nM.

With `O=C1OCCN1C1CCN(CC2Cc3ccc(Oc4ccc(-c5ccn[nH]5)cc4)cc3O2)CC1` (centres unmarked) [Example 203, 3-(1-{6-[4-(2H-Pyrazol-3-yl)-phenoxy]-2,3-dihydro-benzofuran-2-ylmethyl}-piperidin-4-yl)-oxazolidin-2-one] the IC50 [1] was 0.77 nM and the IC50 [2] was 200 nM.

For `O=C1NCC[C@@H]1NCc1ccc2cc(Oc3ccc(-c4ccn[nH]4)cn3)ccc2n1` [Example 49, (S)-3-({6-[5-(2H-Pyrazol-3-yl)-pyridin-2-yloxy]-quinolin-2-ylmethyl}-amino)-pyrrolidin-2-one], the IC50 [1] was 8.9 nM and the IC50 [2] was 860 nM.

`O=C1CC[C@@H](Cn2ncc3cc(Oc4ccc(-c5ccn[nH]5)cc4)ccc32)N1` [Example 253, (S)-5-{5-[4-(2H-Pyrazol-3-yl)-phenoxy]-indazol-1-ylmethyl}-pyrrolidin-2-one] showed an IC50 [1] of 1.4 nM and an IC50 [2] of 300 nM.

Compound `CC[C@H](C)N(Cc1nc2cc(Oc3ccc(-c4ccn[nH]4)cc3)ccc2[nH]1)C(C)=O` [Example 103, N—((S)-sec-butyl)-N-{5-[4-(2H-pyrazol-3-yl)-phenoxy]-1H-benzoimidazol-2-ylmethyl}-acetamide] has an IC50 [1] of 0.27 nM and an IC50 [2] of 190 nM.

Work on `CN(C)CCn1cc2cc(Oc3ccc(-c4ccn[nH]4)cc3)ccc2n1` [Example 158, Dimethyl-(2-{5-[4-(2H-pyrazol-3-yl)-phenoxy]-indazol-2-yl}-ethyl)-amine] yielded an IC50 [1] of 0.28 nM and an IC50 [2] of 110 nM.

`CC1(C)CCN(Cc2nc3cc(Oc4ccc(-c5ccn[nH]5)cc4)ccc3[nH]2)C1=O` [Example 234, 3,3-Dimethyl-1-{5-[4-(2H-pyrazol-3-yl)-phenoxy]-1H-benzoimidazol-2-ylmethyl}-pyrrolidin-2-one] showed an IC50 [1] of 0.26 nM and an IC50 [2] of 180 nM.

In the case of `COC1CCN(Cc2nc3cc(Oc4ccc(-c5ccn[nH]5)cc4)ccc3[nH]2)CC1` [Example 228, 2-(4-Methoxy-piperidin-1-ylmethyl)-5-[4-(2H-pyrazol-3-yl)-phenoxy]-1H-benzoimidazole], the IC50 [1] is reported as 0.16 nM and the IC50 [2] is reported as 180 nM.

Work on `N#CC1CCN(Cc2ccc3cc(Oc4ccc(-c5ccn[nH]5)cn4)ccc3n2)CC1` [Example 99, 1-{6-[5-(2H-pyrazol-3-yl)-pyridin-2-yloxy]-quinolin-2-ylmethyl}-piperidine-4-carbonitrile] yielded an IC50 [1] of 0.93 nM and an IC50 [2] of 170 nM.

For `OCCCn1ncc2cc(Oc3ccc(-c4ccn[nH]4)cc3)ccc21` [Example 118, 3-{5-[4-(2H-Pyrazol-3-yl)-phenoxy]-indazol-1-yl}-propan-1-ol], the IC50 [1] was 7 nM and the IC50 [2] was 760 nM.

Compound `COCC1CCCN(Cc2nc3cc(Oc4ccc(-c5ccn[nH]5)cc4)ccc3[nH]2)C1` (centres unmarked) [Example 156, 2-(3-Methoxymethyl-piperidin-1-ylmethyl)-5-[4-(2H-pyrazol-3-yl)-phenoxy]-1H-benzoimidazole] has an IC50 [1] of 0.22 nM and an IC50 [2] of 95 nM.

For `c1cc(-c2ccc(Oc3ccc4[nH]c(CN[C@H]5CCOC5)nc4c3)cc2)[nH]n1` [Example 194, {5-[4-(2H-Pyrazol-3-yl)-phenoxy]-1H-benzoimidazol-2-ylmethyl}-(S)-tetrahydro-furan-3-yl-amine], the IC50 [1] was 0.18 nM and the IC50 [2] was 180 nM.

For `NC(=O)[C@H]1[C@@H]2CN(Cc3ccc4cc(Oc5ccc(-c6ccn[nH]6)cn5)ccc4n3)C[C@@H]21` [Example 35, (1α,5α,6α)-3-{6-[5-(2H-Pyrazol-3-yl)-pyridin-2-yloxy]-quinolin-2-ylmethyl}-3-aza-bicyclo[3.1.0]hexane-6-carboxylic acid amide], the IC50 [1] was 0.49 nM and the IC50 [2] was 220 nM.

`c1cc(-c2ccc(Oc3ccc4[nH]c(CN5CCCC5)nc4c3)cc2)[nH]n1` [Example 52, 5-[4-(2H-Pyrazol-3-yl)-phenoxy]-2-pyrrolidin-1-ylmethyl-1H-benzoimidazole] showed an IC50 [1] of 0.12 nM and an IC50 [2] of 66 nM.

`OC1CCN(Cc2ccc3cc(Oc4ccc(-c5ccn[nH]5)cn4)ccc3n2)CC1` [Example 204, 1-{6-[5-(2H-Pyrazol-3-yl)-pyridin-2-yloxy]-quinolin-2-ylmethyl}-piperidin-4-ol] was tested, and the IC50 [1] was 0.98 nM and the IC50 [2] was 210 nM.

In the case of `CC(=O)N1CCN(CCc2coc3cc(Oc4ccc(-c5ccn[nH]5)cn4)ccc23)CC1` [Example 136, 1-[4-(2-{6-[5-(2H-Pyrazol-3-yl)-pyridin-2-yloxy]-benzofuran-3-yl}-ethyl)-piperazin-1-yl]-ethanone], the IC50 [1] is reported as 0.63 nM and the IC50 [2] is reported as 190 nM.

For `O=S1(=O)CC2CC1CN2Cc1ccc2cc(Oc3ccc(-c4ccn[nH]4)cc3)ccc2n1` (centres unmarked) [Example 17, 2-(2,2-Dioxo-2-λ-6-thia-5-aza-bicyclo[2.2.1]hept-5-ylmethyl)-6-[4-(2H-pyrazol-3-yl)-phenoxy]-quinoline], the IC50 [1] was 1.1 nM and the IC50 [2] was 430 nM.

In the case of `O=C1CC[C@@H](COc2nccc3cc(Oc4ccc(-c5ccn[nH]5)cc4)ccc23)N1` [Example 119, (S)-5-{6-[4-(2H-Pyrazol-3-yl)-phenoxy]-isoquinolin-1-yloxymethyl}-pyrrolidin-2-one], the IC50 [1] is reported as 20 nM and the IC50 [2] is reported as 2000 nM.

In the case of `CN(Cc1nc2cc(Oc3ccc(-c4ccn[nH]4)cc3)ccc2[nH]1)CC1COCCO1` (centres unmarked) [Example 87, [1,4]Dioxan-2-ylmethyl-methyl-{5-[4-(2H-pyrazol-3-yl)-phenoxy]-1H-benzoimidazol-2-ylmethyl}-amine], the IC50 [1] is reported as 0.36 nM and the IC50 [2] is reported as 120 nM.

Compound `O=C1CC[C@@H](OCc2cn3cc(Oc4ccc(-c5ccn[nH]5)cc4)ccc3n2)CN1` [Example 260, (R)-5-{6-[4-(2H-Pyrazol-3-yl)-phenoxy]-imidazo[1,2-a]pyridin-2-ylmethoxy}-piperidin-2-one] has an IC50 [1] of 5.3 nM and an IC50 [2] of 2200 nM.

Compound `c1cc(-c2ccc(Oc3ccc4[nH]c(CNCC5CCCO5)nc4c3)cc2)[nH]n1` (centres unmarked) [Example 97, {5-[4-(2H-Pyrazol-3-yl)-phenoxy]-1H-benzoimidazol-2-ylmethyl}-(tetrahydro-furan-2-ylmethyl)-amine] has an IC50 [1] of 0.54 nM and an IC50 [2] of 160 nM.

`c1cc(-c2cnc(Oc3ccc4nc(CN5CCCC5)ccc4c3)nc2)[nH]n1` [Example 220, 6-[5-(2H-Pyrazol-3-yl)-pyrimidin-2-yloxy]-2-pyrrolidin-1-ylmethyl-quinoline] gave an IC50 [1] of 1.7 nM and an IC50 [2] of 160 nM.

Compound `O=C1CC[C@@H](Cn2ncc3cc(Oc4ccc(-c5ccn[nH]5)cn4)ccc32)N1` [Example 117, (S)-5-{5-[5-(2H-Pyrazol-3-yl)-pyridin-2-yloxy]-indazol-1-ylmethyl}-pyrrolidin-2-one] has an IC50 [1] of 4.4 nM and an IC50 [2] of 650 nM.
